From patent US4487708A (priority 1981, dated 1984)

What was measured:
[1] = compatibility of neutralizing amines with hydroquinone in solution; format: physicochemical; conditions: combined with hydroquinone
Text: To provide convenient single-drum treatments, it was decided to test-formulate various dioxo aromatic compounds with neutralizing amines.

[2] = room temperature oxygen scavenging test (flask with dissolved oxygen probe); conditions: for % O2 Removed: 60 seconds; for % O2 Removed / % O2 Removed At 60 Seconds: 23-25 °C; for % O2 Removed At 60 Seconds: Table 11, hydroquinone 93 ppm; for % O2 Removed, 1 Minute: hydroquinone: pH 8.6, 22.5 °C, ratio 0.94, initial O2 7.7 ppm
Text: The test apparatus basically consisted of a 1 liter, three-necked flask fitted with a dissolved oxygen probe and a pH electrode. The intent of this apparatus was to show reaction kinetics differences rather than precise measurements (within seconds) of reaction times.
The flask was filled with deionized water which had been stripped of some dissolved oxygen by bubbling nitrogen through a diffuser stone. The pH was adjusted to the desired level with sodium hydroxide. The flask was sealed with a rubber septum, the dissolved oxygen probe and the pH electrode. A magnetic stirrer bar was left in the flask for mixing. The mixer was turned on, and dissolved oxygen and temperature readings were recorded until the dissolved oxygen reached a constant value. Next, the appropriate quantity of additive was injected through the septum using a hypodermic syringe. The initial mole ratio of treatment to dissolved oxygen was determined by weighing feed chemical and measuring the oxygen concentration. […] Dissolved oxygen and temperature readings were then taken at appropriate time intervals.
Using the same apparatus and procedure as described in Example 4 above, oxygen scavenging experiments were performed by injecting 1 ml of stock solution into a glass vessel containing 1070 ml of air-saturated, demineralized water adjusted to the appropriate pH with 7N sodium hydroxide. […] The final pH values indicated are for the test water.
The stock solution concentrations are presented in terms of weight % aqueous. The stock solutions were each 100 grams total. […] The tests were conducted at ambient temperature (23°-25° C.).
The tests were conducted at ambient temperature (23°-25° C.).

[3] = for mu-amine required to effect dissolution: saturated solution, 10.0 g hydroquinone (6.3 + 3.7 g) in 89.5 g water
Procedure: Volumes of mu-amines required to effect dissolution were recorded and converted to weights via density.

[4] = oxygen scavenging efficacy at elevated temperature and pressure (hot water flow system)
Procedure: In a first series of tests, the oxygen scavenging efficacies of various materials were evaluated under conditions of elevated temperature and pressure. The test apparatus used was essentially a stainless steel hot water flow system equipped with appropriate monitoring instrumentation. Demineralized feedwater, adjusted to the appropriate pH and initial dissolved oxygen level (controlled by nitrogen sparging), was pumped from a reservoir at ambient temperature into a once-through heater. Temperature was monitored continuously by means of thermocouples at several locations along the length of the flow tubing. A solution containing the oxygen scavenger test material was loaded into a pump driven syringe and fed continuously to the heated flow stream through a port containing a stainless steel ribbon mixing baffle. The feedwater containing dissolved oxygen and the test material then traversed the flow tubing via a by-pass comprising an additional length of coiled tubing. Contact (or reaction) time of the test material and dissolved oxygen was governed by the choice of coil length. The tendency of the temperature to drop during residence in the coiled tubing was offset by the use of thermostatted heating tapes which maintained the temperature in this tubing at 78±3° C. Upon exiting the coiled tubing, the stream flowed through a sample cooler to render the temperature of the liquid compatible with the operating range of a membrane-type dissolved oxygen probe. The cooled liquid was analyzed for dissolved oxygen via a D.O. flow cell, and pH was potentiometrically monitored in the flow tube immediately downstream of the D.O. probe. Outputs of the temperature, pH and dissolved oxygen probes during operation were monitored via strip chart recorders. The final destination of the reaction mixture was a reservoir which could be drained for analysis of reaction products, if desired.
Temperature in the system could be maintained at 78±3+ C. under 4±1 psig. Residence time of the feedwater in the flow tube from chemical feed point to D.O. flow cell outlet was 4±0.2 minutes. Approximately 3.5 minutes of this total was spent in a 40' length of 0.402 inch i.d. coiled tubing. Entry into and residence in the sample cooler accounted for 0.5 minute of the total contact time.
According to an article by J. W. Cohn and R. E. Powell, Jr., J. Amer.
The test solutions were prepared by initially mixing 10 grams of test material and 90 grams of demineralized water in glass bottles and allowing the mixture to remain in a shaker for several hours. If complete dissolution for a given material was observed after shaking, the pH of the solution was measured. When the pH of the solution was below 10.0, 7N sodium hydroxide was added dropwise until this value was reached. The quantity of added sodium hydroxide was recorded and later used in corrections for the active concentration of the solution. When the pH value of a stock solution was above pH 10.0 without requiring the addition of caustic, the solution was not further modified.
Results of these tests are reported in TABLE 1 below in terms of percent oxygen removed from the test stream. The precision of the initial and final dissolved oxygen values reported is approximately ±10%. […] The experimental uncertainties decrease with increasing values of percent dissolved oxygen removal.
The specific experimental conditions were:
Reaction Time=240±10 seconds

[5] = dissolution and storage stability of hydroquinone/methoxypropylamine solutions; format: physicochemical
Procedure: The following 25 gram solutions were prepared and sealed in glass bottles (components listed in order of addition):
Fifty (50) grams of each of the following solutions were prepared in glass bottles, sealed and placed on a shaker for two hours: […]

[6] = thermal stability of amines / dioxo aromatic compounds (no method given); format: physicochemical; conditions: of the amines tested
[7] = cited from earlier work
[8] = oxygen removal from feedwater of a working boiler (Example 2)
Procedure: In order to compare the performance of hydroquinone with that of hydrazine under field-type conditions, a series of experiments were conducted on the feedwater of a working boiler. The test materials were fed to the deaerator storage tank, and the resultant change, if any, in dissolved oxygen level was measured on a sample flowing from the feedwater line through a membrane-type dissolved oxygen probe.
During the tests, a relatively wide range of experimental conditions was encountered among the test parameters, reflecting the difficulty of attempting to obtain precise data during experiments performed on a working boiler.
In order to provide some point of reference for judging oxygen scavenging efficacies while taking into account the diverse conditions experienced on a daily basis, hydrazine control runs were performed, whenever possible, under feedwater and boiler conditions similar to those encountered during testing of other test materials. The hydrazine control runs are reported below in Table 3, also in terms of % oxygen removal.

[9] = cited from earlier work; remark: listed apart in the source
[10] = Table 8, mu-amine combined with hydroquinone, 103 ppm each, final pH 9.3-10.5
[11] = stock mu-amine 1.5 / hydroquinone 10.0 wt. %, HQ:mu-amine 6.67:1
[12] = stock mu-amine 90.0 / hydroquinone 10.0 wt. %, HQ:mu-amine 1:9
[13] = stock mu-amine 99.0 / hydroquinone 1.0 wt. %, HQ:mu-amine 1:99
[14] = Table 9, mu-amine combined with hydroquinone, about 30 ppm / 10 ppm, 78±1 °C, 3-5 psig, 240±10 seconds, final pH 10.3, initial O2 500-750 ppb
[15] = Table 10, mu-amine combined with hydroquinone, 6.7 ppm each, 78±1 °C, 3-5 psig, 240±10 seconds, final pH 9.7, initial O2 1.0-1.5 ppm
[16] = Table 5, hydrazine: pH 9.2, 26.5 °C, ratio 10.5, initial O2 0.87 ppm
[17] = Table 1, 78±3 °C, 4±1 psig, contact 4±0.2 min, feedwater 58-100 ppm, pH 8.9-10.9, initial O2 1.8-2.3 ppm, hydrazine average of 9 runs, values below 20% may be artifacts
[18] = 6.3 g hydroquinone in 89.5 g demineralized water

Compound: NC1CCCCC1 [Cyclohexylamine]
- compatibility with hydroquinone in solution [1]: precipitated out of solution

Compound: CC(O)CNCC(C)O (stereo not drawn) [Diisopropanolamine]
- % O2 Removed [2, 10]: 86%

Compound: CN(C)CCCN [Dimethylaminopropylamine]
- % O2 Removed [2, 10]: 76%
- % O2 Removed At 60 Seconds [2, 11]: 94%
- % O2 Removed At 60 Seconds ([2]; stock mu-amine 30.0 / hydroquinone 10.0 wt. %, HQ:mu-amine 1:3): 99%
- % O2 Removed At 60 Seconds [2, 12]: 98%
- % O2 Removed At 60 Seconds [2, 13]: 50%
- mu-amine required to effect dissolution [3]: 1.7 grams

Compound: NCCN [Ethylenediamine]
- % O2 Removed [4, 14]: 99%
- % O2 Removed [2, 10]: 85%

Compound: COCCCN [Methoxypropylamine]
- % O2 Removed [4, 15]: 99%
- lowest practical MOPA concentration in the mixture ([5]; 10% hydroquinone aqueous solution): 2%
- % O2 Removed At 60 Seconds [2, 11]: 96%
- % O2 Removed At 60 Seconds ([2]; stock mu-amine 2.0 / hydroquinone 10.0 wt. %, HQ:mu-amine 5:1): 96%
- % O2 Removed At 60 Seconds ([2]; stock mu-amine 3.0 / hydroquinone 10.0 wt. %, HQ:mu-amine 3.33:1): 96%
- % O2 Removed At 60 Seconds ([2]; stock mu-amine 15.0 / hydroquinone 15.0 wt. %, 1:1): 95%
- % O2 Removed At 60 Seconds ([2]; stock mu-amine 20.0 / hydroquinone 20.0 wt. %, 1:1): 98%
- % O2 Removed At 60 Seconds ([2]; stock mu-amine 30.0 / hydroquinone 30.0 wt. %, 1:1): 98%
- % O2 Removed At 60 Seconds ([2]; stock mu-amine 40.0 / hydroquinone 40.0 wt. %, 1:1): 94%
- % O2 Removed At 60 Seconds [2, 12]: 94%
- % O2 Removed At 60 Seconds [2, 13]: 96%
- % O2 Removed ([2]; Table 12, methoxypropylamine 1.0 / hydroquinone 1.0 wt. %, final pH 8.5): 10%
- % O2 Removed ([2]; Table 12, methoxypropylamine 1.0 / hydroquinone 6.0 wt. %, final pH 8.4): 78%
- % O2 Removed ([2]; Table 12, methoxypropylamine 3.0 / hydroquinone 3.0 wt. %, final pH 8.9): 74%
- % O2 Removed ([2]; Table 12, methoxypropylamine 6.0 / hydroquinone 1.0 wt. %, final pH 9.0): 17%
- % O2 Removed ([2]; Table 12, methoxypropylamine 6.0 / hydroquinone 6.0 wt. %, final pH 9.0): 93%
- thermal stability [6]: most thermally stable of the amines tested
- MOPA required to dissolve hydroquinone ([3]; 10.0 g hydroquinone, neat MOPA): 12.5 grams
- mu-amine required to effect dissolution [3]: 1.7 grams

Compound: NCCO [Monoethanolamine]
- % O2 Removed [2, 10]: 75%

Compound: CC(O)CN (stereo not drawn) [Monoisopropanolamine]
- % O2 Removed [4, 15]: 98%

Compound: C1COCCN1 [Morpholine]
- compatibility with hydroquinone in solution [1]: precipitated out of solution

Compound: NCCNCCNCCN [Triethylenetetramine]
- % O2 Removed [2, 10]: 89%

Compound: NN [hydrazine]
- pH of maximum oxygen scavenging efficacy ([7]; Cohn and Powell 1954): 10.0-10.5 pH
- decomposition temperature ([7]; forms ammonia): Above 400 ° F.
- rate of reaction with oxygen ([7]; low temperatures, such as room temperature): very slow at low temperatures
- % O2 Removed, 5 Minutes [2, 16]: 2%
- % O2 Removed, 1 Minute [2, 16]: 1%
- % O2 Removed ([8]; Table 3, control run 1, 1.6 ppm actives, pH 8.8, steam load 11, initial O2 13.0 ppb): 69%
- % O2 Removed ([8]; Table 3, control run 2, 1.1 ppm actives, pH 9.4, steam load 15, initial O2 4.0 ppb): 50%
- % O2 Removed ([8]; Table 3, control run 3, 1.2 ppm actives, pH 8.6, steam load 15, initial O2 6.0 ppb): 60%
- % O2 Removed ([8]; Table 3, control run 4, 1.0 ppm actives, pH 8.8, steam load 15, initial O2 5.8 ppb): 55%
- % O2 Removed ([8]; Table 3, control run 5, 0.8 ppm actives, pH 9.4, steam load 11, initial O2 3.5 ppb): 31%
- % O2 Removed ([8]; Table 3, control run 6, 1.6 ppm actives, pH 9.6, steam load 14, initial O2 4.0 ppb): 30%

Compound: Oc1ccc(O)cc1 [hydroquinone]
- % O2 Removed [4, 17]: 97%
- active hydroquinone concentration of stable aqueous solution ([5]; 1 to 1 with methoxypropylamine (40%), sealed storage for 12 days): up to 40%
- % O2 Removed, 1 Minute [2, 16]: 29%
- % O2 Removed ([2]; Table 12, mu-amine 0 / hydroquinone 1.0 wt. %, final pH 8.1): 9%
- % O2 Removed ([2]; Table 12, mu-amine 0 / hydroquinone 3.0 wt. %, final pH 8.0): 17%
- % O2 Removed ([2]; Table 12, mu-amine 0 / hydroquinone 6.0 wt. %, final pH 7.9): 27%
- aqueous solubility (accepted literature value) ([9]; 25 °C): ~7%
- solubility in water ([9]; hydroquinone alone): about 7%
- dissolution time, solution #1 [3, 18]: 23 min
- dissolution time, solution #2 [3, 18]: 19 min
- dissolution time, solution #3 [3, 18]: 21 min

Compound: Nc1ccccc1N [o-phenylenediamine, reference compound]
- % O2 Removed [4, 17]: 10%

Compound: Nc1ccc(N)cc1 [p-phenylenediamine, reference compound]
- % O2 Removed [4, 17]: 35%

Compound: Oc1cccc(O)c1 [resorcinol, reference compound]
- % O2 Removed [4, 17]: 0%

Compound: CCC(C)N (stereo not drawn) [sec-Butylamine]
- compatibility with hydroquinone in solution [1]: compatible with hydroquinone in solution
- % O2 Removed [2, 10]: 74%

Compound: CC(C)(C)N [tert-Butylamine]
- compatibility with hydroquinone in solution [1]: insoluble mass

Compound: Dimethyl(iso)propanolamine
- % O2 Removed [4, 14]: 98%
- % O2 Removed [2, 10]: 73%
